According to US20030176368A1, “Synthesis of epothilones, intermediates thereto and analogues thereof” (priority 2001, published 2003):
Where two headings read alike, the source gives them in different places.

Experiments:
CCRF-CEM/Taxol = assay: XTT cytotoxicity assay, taxol-resistant CCRF-CEM/Taxol cells; type: cell-based, human; conditions: for activity in CCRF-CEM cell lines resistant to Taxol: Example 12, in words
Procedure: (§1) XTT assay following 72 h inhibition. CCRF-CEM is a human T-cell acute lymphoblastic leukemia cell line. The CCRF-CEM/VBL100, CCRF-CEM/VM1, and CCRF-CEM/Taxol cell lines all overexpress P-glycoprotein and display a multidrug resistance phenotype to MDR-associated oncolytics. (Chou et al. Proc. Natl. Acad. Sci. USA 98:8113, 2001; incorporated herein by reference).
(§2) A typical experiment invovles culturing cells (e.g., CCRF-CEM) at an initial density of 2-5×10^4 cells per ml. They are maintained in a 5% CO2-humidified atmosphere at 37° C. in RPMI medium 1640 (GIBCO/BRL) containing penicillin (100 units/ml), streptomycin (100 μg/ml) (GIBCO/BRL), and 5% heat-inactivated fetal bovine serum. For cells that were grown in suspension (such as CCRF-CEM and its sublines), cytotoxicitiy is measured by using the 2,-3-bis(2-methoxy-4-nitro-5-sulfophenyl)-5 carboxanilide)-2H terazodium hydroxide (XTT)-microculture tetrazonium method in duplicate in 96-well microtiter plates. For both methods, the absorbance of each well is measured with a microplate reader (EL-340, Bio-Tek, Burlington, Vt.). Each run entails six or seven concentrations of the tested drugs. Dose-effect relationship data are analyzed with the median-effect plot.

CCRF-CEM/VBL100 = assay: XTT cytotoxicity assay, vinblastine-resistant CCRF-CEM/VBL100 cells; type: cell-based, human
Procedure: as §1, §2
(§3) The CCRF-CEM human T cells, acute lymphoblastic leukemic cells, its teniposide-resistant subline (CCRF-CEM/VM1) and vinblastine-resistant subline (CCRF-CEM/VBL100) are obtained from W. T. Beck (University of Illinois, Chicago, Ill.).

tubulin = assay: Tubulin binding: formation of microtubules in the presence of the compounds; type: biochemical
Excerpt: Indeed, the microtubule stabilizing ability closely parallels the observed cytotoxicity data.

CCRF-CEM = assay: XTT cytotoxicity assay, CCRF-CEM cells; type: cell-based, human; conditions: for activity in CCRF-CEM cell lines: Example 12, in words
Procedure: as §1, §2, §3

CCRF-CEM/VM1 = assay: XTT cytotoxicity assay, teniposide-resistant CCRF-CEM/VM1 cells; type: cell-based, human
Procedure: as §1, §2, §3

[1] = Stability on exposure to murine plasma; type: in vitro ADME; conditions: compared with the parent compound
Excerpt: See Chou et al. Proc. Natl. Acad. Sci. USA 98:8113, 2001, incorporated herein by reference, for details.
However, the apparently disappointing murine in vivo results should be viewed in the context of reports that dEpoB itself evidenced a degree of bioinstability in murine plasma; yet had much longer plasma half-lives in higher organisms, including humans (Chou et al. J. Proc. Natl. Acad. Sci. USA 98:8113, 2001; incorporated herein by reference). The observed discrepancy in efficacy between mice and other mammals, including humans, has been ascribed to higher esterase levels in rodents.

[2] = Homo sapiens, CCRF-CEM, Example 5 Table 1, 72 h inhibition, read-out: In vitro Cytotoxicities (IC50) C/Taxol
[3] = Homo sapiens, CCRF-CEM, Example 5 Table 1, 72 h inhibition, read-out: In vitro Cytotoxicities (IC50) C/VBL100
[4] = Homo sapiens, CCRF-CEM, Example 5 Table 1, 72 h inhibition, read-out: In vitro Cytotoxicities (IC50) CCRF-CEM(C)
[5] = Homo sapiens, CCRF-CEM, Example 5 Table 1, 72 h inhibition, read-out: In vitro Cytotoxicities (IC50) C/VM1
[6] = XTT assay following 72 h inhibition, read-out: In vitro Cytotoxicities (IC50) CCRF-CEM/VM1
[7] = XTT assay following 72 h inhibition, read-out: In vitro Cytotoxicities (IC50) CCRF-CEM/Taxol
[8] = Example 6 table, XTT assay following 72 h inhibition, read-out: CCRF-CEM/VBL (IC50 (μM))
[9] = XTT assay following 72 h inhibition, read-out: In vitro Cytotoxicities (IC50) CCRF-CEM/VBL100
[10] = Example 6 table, XTT assay following 72 h inhibition, read-out: CCRF-CEM (IC50 (μM))
[11] = XTT assay following 72 h inhibition, read-out: In vitro Cytotoxicities (IC50) CCRF-CEM

With `C/C1=C\[C@@H]2C[C@H](C)[C@H](O2)[C@@H](C)C(=O)C(C)(C)[C@@H](O)CC(=O)O[C@H](/C(C)=C/c2csc(C)n2)CC1O` (stereo partly shown) [13 (THF macrocycle)] the IC50 (CCRF-CEM/Taxol; [2]) was 4240 nM, the IC50 (CCRF-CEM/VBL100; [3]) was 8.76 µM and the “% Tubulin Binding” value (tubulin; Example 5 Table 1) was “inactive”. For the same molecule, the IC50 (CCRF-CEM; [4]) was 0.761 µM.

`C/C1=C/C[C@@H](/C(C)=C/c2csc(C)n2)OC(=O)C[C@H](O)C(C)(C)C(=O)[C@H](C)[C@@H](O)[C@@H](C)C[C@@H](O)[C@@H]1O` [12 (dihydroxy)] gave an IC50 (CCRF-CEM/VM1; [5]) of 2350 nM, an IC50 (CCRF-CEM/Taxol; [2]) of 16800 nM and an IC50 (CCRF-CEM/VBL100; [3]) of 99 µM. For the same molecule, the “% Tubulin Binding” value (tubulin; Example 5 Table 1) was 31% and the IC50 (CCRF-CEM; [4]) was 1 µM.

`CC1=CCC(C(C)=Cc2csc(C)n2)OC(=O)CC(O)C(C)(C)C(=O)C(C)C(O)C(C)CC=CC1` (stereo not shown) [[17]ddEpoB, 10,11-dehydro-13,14-[17]desoxyepothilone B] gave an IC50 (CCRF-CEM/VM1; Example 12, growth inhibition, read-out: activity, CCRF-CEM/VM1 resistant cell lines) of about 55 nM, an IC50 (CCRF-CEM/VM1; [6]) of 55 nM and an IC50 (CCRF-CEM/Taxol; Example 12, growth inhibition, read-out: activity, CCRF-CEM/Taxol resistant cell lines) of about 49 nM. For the same molecule, the IC50 (CCRF-CEM/Taxol; [7]) was 53 nM, the IC50 (CCRF-CEM/VBL100; [8]) was 0.126 µM and the IC50 (CCRF-CEM/VBL100; Example 12, growth inhibition, read-out: activity, CCRF-CEM/VBL100 resistant cell lines) was about 0.137 µM. For the same molecule, the IC50 (CCRF-CEM/VBL100; [9]) was 0.126 µM, the “% Tubulin Binding” value (tubulin; Example 5 Table 1) was 94% and the IC50 (CCRF-CEM; [10]) was 0.04 µM. The IC50 (CCRF-CEM; Example 12, growth inhibition, read-out: activity, CCRF-CEM tumor cell lines) was about 0.051 µM and the IC50 (CCRF-CEM; [11]) was 0.04 µM.

With `C/C1=C/C[C@@H](/C(C)=C/c2csc(C)n2)OC(=O)C[C@H](O)C(C)(C)C(=O)[C@H](C)[C@@H](O)[C@@H](C)CC2OC(C)(C)OC12` (stereo partly shown) [10, 11-ketal-dEpoB] the “activity in CCRF-CEM cell lines resistant to Taxol” value (CCRF-CEM/Taxol) was “demonstrated activity” and the “activity in CCRF-CEM cell lines” value (CCRF-CEM) was “demonstrated activity”.

For `C/C(=C\c1csc(C)n1)[C@@H]1C/C=C(/C(F)(F)F)C/C=C/C[C@H](C)[C@H](O)[C@@H](C)C(=O)C(C)(C)[C@@H](O)CC(=O)O1` [27-Tn-F-[17]ddEpoB (22), 10,11-dehydro-13,14-desoxy-27-trifluoro-[17]epothilone B], the “stability in mouse blood plasma” value [1] was “more stable”, the IC50 (CCRF-CEM/VBL100; Homo sapiens, CCRF-CEM, Example 6 table, XTT assay following 72 h inhibition, read-out: CCRF-CEM/VBL (IC50 (μM))) was 0.191 µM and the IC50 (CCRF-CEM; Homo sapiens, CCRF-CEM, Example 6 table, XTT assay following 72 h inhibition, read-out: CCRF-CEM (IC50 (μM))) was 0.068 µM.

With “10,11-dehydro-12,13-desoxyepothilone B [Epo490]” the IC50 (CCRF-CEM/VM1; [6]) was 35 nM, the IC50 (CCRF-CEM/Taxol; [7]) was 32 nM and the IC50 (CCRF-CEM/VBL100; [8]) was 0.068 µM. The IC50 (CCRF-CEM/VBL100; [9]) was 0.091 µM, the IC50 (CCRF-CEM; [10]) was 0.02 µM and the IC50 (CCRF-CEM; [11]) was 0.025 µM.

In the case of `CC1=C/C[C@@H](/C(C)=C/c2csc(CO)n2)OC(=O)C[C@H](O)C(C)(C)C(=O)[C@H](C)[C@@H](O)[C@@H](C)C\C=C\1` [Compound 21-OH-Epo490], the IC50 (CCRF-CEM/VM1; [5]) is reported as 61 nM, the IC50 (CCRF-CEM/VM1; Homo sapiens, CCRF-CEM, Example 11 Table 2, XTT assay following 72-h inhibition, read-out: In Vitro Cytotoxicities (IC50) CCRF-CEM/VMI) is reported as 61 nM and the “activity in CCRF-CEM cell lines resistant to Taxol” value (CCRF-CEM/Taxol) is reported as “demonstrated activity”. For the same molecule, the IC50 (CCRF-CEM/Taxol; [2]) was 51 nM, the IC50 (CCRF-CEM/Taxol; Homo sapiens, CCRF-CEM, Example 11 Table 2, XTT assay following 72-h inhibition, read-out: In Vitro Cytotoxicities (IC50) CCRF-CEM/TAXOL) was 51 nM and the IC50 (CCRF-CEM/VBL100; [3]) was 0.202 µM. The IC50 (CCRF-CEM/VBL100; Homo sapiens, CCRF-CEM, Example 11 Table 2, XTT assay following 72-h inhibition, read-out: In Vitro Cytotoxicities (IC50) CCRF-CEM/VBL100) was 0.202 µM, the “% Tubulin Binding” value (tubulin; Example 5 Table 1) was 77% and the “% Tubulin Binding” value (tubulin; Microtubules formed in the presence of dEpoB is defined as 100%) was 77%. The “activity in CCRF-CEM cell lines” value (CCRF-CEM) was “demonstrated activity”, the IC50 (CCRF-CEM; [4]) was 0.03 µM and the IC50 (CCRF-CEM; Homo sapiens, CCRF-CEM, Example 11 Table 2, XTT assay following 72-h inhibition, read-out: In Vitro Cytotoxicities (IC50) CCRF-CEM) was 0.03 µM.
